{
  "source": "patent US10828241B2",
  "about": "“Skin lightening compositions and methods” (SYTHEON LIMITED, priority 2018, dated 2020)",
  "system": "skin pigmentation",
  "experiment": "Clinical study: facial pigment intensity from digital photography",
  "format": "in vivo, human",
  "conditions": "lotion with 1.00% acetyl zingerone (Formulation 1A) applied to full face twice daily, group of 17",
  "data": [
    {"smiles": "COc1cc(CC(C(C)=O)C(C)=O)ccc1O", "note": "[Compd. 1, Acetyl Zingerone]", "values": [
      {"measurement": "Pigment Intensity (% Change), Average", "setting": "4 weeks", "value": "−25.580", "unit": "%"},
      {"measurement": "Pigment Intensity (% Change), Average", "setting": "8 weeks", "value": "−25.601", "unit": "%"}
    ]}
  ]
}
